33 compounds from patent publication US8916702B2 (priority 2012, dated 2014) can be followed below.

Read-outs that look alike come from different tables or passages of the source.

This assay relates to HCV pseudoparticles (genotype 1a HCV E1 and E2 envelope, H77C isolate). As to the kind of experiment: microbe, parasite or virus in culture. It is filed as cell-based. As to conditions: Hepatitis C virus.
[1] abbreviates: Huh-7, 48 h, read-out: Activity (EC50 class), HCV pseudoparticles, Huh7 cells, luciferase 2 days after infection, average of duplicates.
Setting [2] is: Huh-7, 48 h, HCV pseudoparticle infection of Huh7 cells, luciferase 2 days after infection, average of duplicates.
The mark [3] stands for this setting: Huh-7, 48 h, read-out: Activity (EC50 class), HCV pseudoparticle infection of Huh7 cells, luciferase 2 days after infection, EC50 expressed as class A/B.
[4] abbreviates: Huh-7, read-out: Activity (EC50 class), HCV pseudoparticles (genotype 1a, H77C) in Huh7 cells, EC50 expressed as class A/B.
[5] abbreviates: Huh-7, 48 h, HCV pseudoparticles (genotype 1a, H77C) in Huh7 cells, average of duplicate, luciferase 2 days after infection.

As usually defined, the EC50 is the concentration that produces a half-maximal response. Take `O=C(NCC[C@H](NC(=O)c1ccc(Nc2nc(NC3(c4ccc(Cl)cc4)CC3)nc(OCC(F)(F)F)n2)cc1)C(=O)O)C(=O)Nc1cccc(-n2ccnc2)c1` [Compound 3659]: the EC50 under setting [1] lay in the range of 0.01 to 10 nM.

Regarding `CCC1(CC)CC1CNC(=O)C(=O)NCC[C@H](NC(=O)c1ccc(Nc2nc(NC3(c4ccc(Cl)cc4)CC3)nc(OCC(F)(F)F)n2)cc1)C(=O)OC` (stereo partly shown) [Compound 1199], the EC50 is, setting by setting: under setting [2], 0.19 nM; under setting [3], 0.01 to 10 nM.

On to `COC(=O)[C@H](CNC(=O)C(=O)NCC1CCCc2ccccc21)NC(=O)c1ccc(Nc2nc(NC3(c4ccc(Cl)cc4)CC3)nc(OCC(F)(F)F)n2)cc1` (stereo partly shown) [Compound 1299], for which the EC50 under setting [3] is 0.01 to 10 nM. Regarding `O=C(NCCC(NC(=O)c1ccc(Nc2nc(NC3(c4ccc(Cl)cc4)CC3)nc(OCC(F)(F)F)n2)cc1)C(=O)O)C(=O)Nc1ccc(-n2ccnc2)cc1` (stereo not shown) [Compound 3521], the EC50 under setting [4] was 0.01 to 10 nM. With `Cc1ccc(NC(=O)C(=O)NCC(C)(C)CNC(=O)c2ccc(Nc3nc(NC4(c5ccc(Cl)cc5)CC4)nc(OCc4ccc(C(F)(F)F)cc4)n3)cc2)cc1` [Compound 3851], the EC50 under setting [1] lay in the range of 0.01 to 10 nM. On the same count and under the same terms, in the case of `O=C(NC[C@H](NC(=O)c1ccc(Nc2nc(NC3(c4ccc(Cl)cc4)CC3)nc(OCC(F)(F)F)n2)cc1)C(=O)O)C(=O)Nc1cccc(OC(F)F)c1` [Compound 3764] it was 0.01 to 10 nM. For `CN(CCCN(C)C(=O)c1ccc(Nc2nc(NC3(c4ccc(Cl)cc4)CC3)nc(OCC(F)(F)F)n2)cc1)C(=O)C(=O)Nc1ccccc1` [Compound 3428], the EC50 under setting [4] was in the range of 0.01 to 10 nM. The same measure, in the same setting: in the case of `Cn1cc(NC(=O)C(=O)NCC(C)(C)CNC(=O)c2ccc(Nc3nc(NC4(c5ccc(Cl)cc5)CC4)nc(OCC(F)(F)F)n3)cc2)cn1` [Compound 3176] it was 0.01 to 10 nM; in that of `CC(C)(CNC(=O)C(=O)Nc1ccc(C(F)(F)F)cc1F)CNC(=O)c1ccc(Nc2nc(NC3(c4ccc(Cl)cc4)CC3)nc(OCC(F)(F)F)n2)cc1` [Compound 3409], 0.01 to 10 nM. As for `CC(C)(CNC(=O)C(=O)Nc1cccc(-c2nn[nH]n2)c1)CNC(=O)c1ccc(Nc2nc(NC3(c4ccc(Cl)cc4)CC3)nc(OCC(F)(F)F)n2)cc1` [Compound 1489], the EC50 under setting [3] is 0.01 to 10 nM. In the case of `O=C(NC[C@H](NC(=O)c1ccc(Nc2nc(NC3(c4ccc(Cl)cc4)CC3)nc(OCC(F)(F)F)n2)cc1)C(=O)O)C(=O)Nc1ccc(Cn2cccc2)cc1` [Compound 3280], the EC50 under setting [4] was 0.01 to 10 nM. On to `O=C(NC[C@H](NC(=O)c1ccc(Nc2nc(NC3(c4ccc(Cl)cc4)CC3)nc(OCC(F)(F)F)n2)cc1)C(=O)O)C(=O)Nc1cccc(C(F)(F)F)c1` [Compound 1359], for which, under setting [3], the EC50 was in the range of 0.01 to 10 nM. For the compound `COC(=O)[C@H](CNC(=O)C(=O)NCC1CC1)NC(=O)c1ccc(Nc2nc(NC3(c4ccc(Cl)cc4)CC3)nc(OCC(F)(F)F)n2)cc1` [Compound 1461], the EC50 under setting [3] is 0.01 to 10 nM. Consider `Cc1nc(-c2ccc(NC(=O)C(=O)NCC(C)(C)CNC(=O)c3ccc(Nc4nc(NC5(c6ccc(Cl)cc6)CC5)nc(OCC(F)(F)F)n4)cc3)cc2)no1` [Compound 1563], for which, under setting [3], the EC50 lay within 0.01 to 10 nM.

`COC(=O)[C@H](CNC(=O)C(=O)Nc1cccc(CCc2ccccn2)c1)NC(=O)c1ccc(Nc2nc(NC3(c4ccc(Cl)cc4)CC3)nc(OCC(F)(F)F)n2)cc1` [Compound 3713]: under setting [1], the EC50 was 0.01 to 10 nM. On to `CCc1ccc(NC(=O)C(=O)NCC(C)(C)CNC(=O)c2ccc(Nc3nc(NC4(c5ccc(Cl)cc5)CC4)nc(OCC(F)(F)F)n3)cc2)cc1` [Compound 1583], for which, under setting [3], the EC50 fell in the range of 0.01 to 10 nM. Regarding `Cc1ccc(-c2ccc(NC(=O)C(=O)NCC(C)(C)CNC(=O)c3ccc(Nc4nc(NC5(c6ccc(Cl)cc6)CC5)nc(OCC(F)(F)F)n4)cc3)cc2)cc1` [Compound 1565], the EC50 was 0.13 nM under setting [2] and 0.01 to 10 nM under setting [3].

For the compound `O=C(NCCc1ccccc1F)C(=O)NC[C@H](NC(=O)c1ccc(Nc2nc(NC3(c4ccc(Cl)cc4)CC3)nc(OCC(F)(F)F)n2)cc1)C(=O)O` [Compound 1402], the EC50 under setting [3] lay within 0.01 to 10 nM. Turning to `Cc1cc(NC(=O)C(=O)NCC(O)CNC(=O)c2ccc(Nc3nc(NC4(c5ccc(Cl)cc5)CC4)nc(OCC(F)(F)F)n3)cc2)no1` (stereo not shown) [Compound 3364], under setting [4], the concentration for a half-maximal effect (EC50) was 0.01 to 10 nM. On to `Cn1cnc(NC(=O)C(=O)NCC(C)(C)CNC(=O)c2ccc(Nc3nc(NC4(c5ccc(Cl)cc5)CC4)nc(OCC(F)(F)F)n3)cc2)c1` [Compound 3178], for which the EC50 under setting [4] was 0.01 to 10 nM. As for `COC(=O)[C@H](CCNC(=O)C(=O)Nc1ccc(-n2cnc(Cl)c2Cl)cc1)NC(=O)c1ccc(Nc2nc(NC3(c4ccc(Cl)cc4)CC3)nc(OCC(F)(F)F)n2)cc1` [Compound 3124], the EC50 reads like this: under setting [5], 18.2 nM; under setting [4], 0.01 to 10 nM. For the compound `COC(=O)[C@H](CNC(=O)C(=O)NC(C1CC1)C1CC1)NC(=O)c1ccc(Nc2nc(NC3(c4ccc(Cl)cc4)CC3)nc(OCC(F)(F)F)n2)cc1` [Compound 1055], the EC50 was 2.41 nM under setting [2] and 0.01 to 10 nM under setting [3]. With `COc1ccccc1CNC(=O)C(=O)NC[C@H](NC(=O)c1ccc(Nc2nc(NC3(c4ccc(Cl)cc4)CC3)nc(OCC(F)(F)F)n2)cc1)C(=O)O` [Compound 1165], the EC50 under setting [3] was 0.01 to 10 nM. For the compound `CC(C)(CNC(=O)c1ccc(Nc2nc(NC3(c4ccc(Cl)cc4)CC3)nc(OCC(F)(F)F)n2)cc1)NC(=O)C(=O)NC1CCCCC1` [Compound 3436], the half-maximal effective concentration (EC50) is, setting by setting: under setting [5], 0.081 nM; under setting [4], 0.01 to 10 nM. As for `COC(=O)[C@H](CNC(=O)C(=O)NCC1CCCOC1)NC(=O)c1ccc(Nc2nc(NC3(c4ccc(Cl)cc4)CC3)nc(OCC(F)(F)F)n2)cc1` (stereo partly shown) [Compound 1458], the EC50 by setting is: under setting [2], 3.2 nM; under setting [3], 0.01 to 10 nM. `COC(=O)[C@H](CCNC(=O)C(=O)Nc1cccc(OC)c1)NC(=O)c1ccc(Nc2nc(NC3(c4ccc(Cl)cc4)CC3)nc(OCC(F)(F)F)n2)cc1` [Compound 1228]: the EC50 under setting [3] lay in the range of 0.01 to 10 nM. Still for that read-out and setting: in the case of `CCC1CCC(NC(=O)C(=O)NC[C@H](NC(=O)c2ccc(Nc3nc(NC4(c5ccc(Cl)cc5)CC4)nc(OCC(F)(F)F)n3)cc2)C(=O)O)CC1` (stereo partly shown) [Compound 1093] it was 0.01 to 10 nM.

For `COC(=O)[C@H](CNC(=O)C(=O)Nc1cccc(-c2nnnn2C)c1)NC(=O)c1ccc(Nc2nc(NC3(c4ccc(Cl)cc4)CC3)nc(OCC(F)(F)F)n2)cc1` [Compound 3731], the concentration for a half-maximal effect (EC50) under setting [1] fell in the range of 0.01 to 10 nM. In the case of `Cc1ccc(NC(=O)C(=O)NCC(C)(C)CNC(=O)c2ccc(Nc3nc(NC4(c5ccc(Cl)cc5)CC4)nc(OCC(F)(F)F)n3)cc2)cc1F` [Compound 3044], the EC50 under setting [4] lay within 0.01 to 10 nM. Regarding `CC(C)(CNC(=O)C(=O)Nc1ccc(C(=O)c2ccc(NC(=O)CCCCCNC(=O)CCCC[C@H]3SC[C@@H]4NC(=O)N[C@@H]43)cc2)cc1)CNC(=O)c1ccc(Nc2nc(NC3(c4ccc(Cl)cc4)CC3)nc(OCC(F)(F)F)n2)cc1` [Compound 3558], the EC50 by setting is: under setting [5], 0.26 nM; under setting [4], 0.01 to 10 nM. Take `COC(=O)[C@H](CNC(=O)C(=O)Nc1ccc(-c2ccc(C)cc2)cc1)NC(=O)c1ccc(Nc2nc(NC3(c4ccc(Cl)cc4)CC3)nc(OCC(F)(F)F)n2)cc1` [Compound 3188]: the 50% effective concentration (EC50) under setting [4] lay within 0.01 to 10 nM. Take `CC(C)(CNC(=O)C(=O)Nc1ccc(-c2cccc(Cl)c2)cc1)CNC(=O)c1ccc(Nc2nc(NC3(c4ccc(Cl)cc4)CC3)nc(OCC(F)(F)F)n2)cc1` [Compound 1588]: the EC50 under setting [3] was 0.01 to 10 nM. `C=Cc1ccccc1NC(=O)C(=O)NCC(C)(C)CNC(=O)c1ccc(Nc2nc(NC3(c4ccc(Cl)cc4)CC3)nc(OCC(F)(F)F)n2)cc1` [Compound 3362]: the EC50 under setting [4] was 0.01 to 10 nM.
